Experiments:
[1] = test system: BRAPP (broadleaf signalgrass); assay: Pre-plant incorporated (PPI) herbicidal activity, warm season; type: in vivo, Brachiaria platyphylla
Method: (§1) In another set of tests, the pre-plant incorporated (PPI) activity of compounds of this invention was evaluated on the same species as for the pre-emergence tests described above. In the PPI tests the following procedure, designed to simulate PPI application, was used.
(§2) A pre-prepared topsoil mixture (described above) was placed in a pot and compacted to a depth of 1.0 to 1.25 cm from the top of the pot. Seeds of each of several monocotyledonous and dicotyledonous annual plant species were placed on top of the soil. A sufficient quantity of soil to cover the seeds and level fill the pot was weighed into an open container. A known amount of the test compound was dissolved or suspended in an organic solvent and applied by spraying to this cover soil. The cover soil was thoroughly mixed to distribute the test compound throughout the cover soil, and was then applied as a cover layer over the seeds. Untreated soil was used as a cover layer for control pots. After treatment the plants were placed in a greenhouse where they received 0.64 cm of overhead irrigation. All subsequent watering consisted of a light overhead mist and/or subirrigation as needed for germination and growth. Tables 9 and 10 below relate to warm season plant species which were placed after pre-emergence treatment in a greenhouse with a 30/21° C. day/night temperature regime. Tables 11 and 12 below relates to cool season plant species placed after pre-emergence treatment in a greenhouse or growth chamber with an 18/13° C. day/night temperature regime. Only the compounds of Examples 1, 6, 8, 11, 13 and 15-20 were included in PPI tests.
(§3) Approximately 14 days after planting and treating, the plants were observed and herbicidal efficacy recorded as percent inhibition by comparison with untreated plants.

[2] = test system: GALAP (catchweed bedstraw); assay: Pre-plant incorporated (PPI) herbicidal activity, cool season; type: in vivo, Galium aparine
Method: as §1, §2, §3

POLCO (wild buckwheat) = assay: as above; type: in vivo, Polygonum convolvulus; conditions: pre-plant incorporated; lowest tested rate with 80% or greater inhibition; about 14 days
Method: as §1, §2, §3

STEME (common chickweed) = assay: as above; type: in vivo, Stellaria media; conditions: pre-plant incorporated; lowest tested rate with 80% or greater inhibition; about 14 days
Method: as §1, §2, §3

LOLMG (annual ryegrass) = assay: as above; type: in vivo, Lolium multiflorum
Method: as §1, §2, §3

[3] = test system: AGSST (creeping bentgrass); assay: as above; type: in vivo, Agrostis stolonifera
Method: as §1, §2, §3

SETVI (green foxtail) = assay: Post-emergence herbicidal activity, cool season; type: in vivo, Setaria viridis; conditions: abraded plants sprayed at 300, 100, 30 and 10 g/ha; about 14 days after treatment
In short: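 Abraded seedling foliage receives a spray of test compound at four rates, 300 to 10 g/ha, in 50:50 acetone/water at 3,100 l/ha. After about 14 days in an 18/13° C. day/night greenhouse, inhibition is scored against abraded untreated controls and expressed as GR80.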

corn (ZEAMX) = assay: Selectivity test, PPI, warm season crop; type: in vivo, Zea mays; conditions: Zea mays, PPI application, read-out: Percent inhibition ZEAMX
Method: as §2, §3
(§4) Additional pre-emergence and PPI tests were conducted by the procedures described above, on warm and cool season weed species in the presence of crop species, to assess herbicidal selectivity. Crop species included in warm season tests were corn (Zea mays, ZEAMX), rice (Oryza sativa, ORYSA) and soybean (Glycine max, GLYMX). Crop species included in cool season tests were wheat (Triticum aestivum, TRZAW), barley (Hordeunm vulgare, HORVX) and oilseed rape (Brassica napus, BRSNS).
(§5) Tables 15 and 16 relate to pre-emergence and PPI tests respectively on warm season species. Table 17 relates to pre-emergence tests on cool season species.

rice (ORYSA) = assay: Selectivity test, PPI, warm season crop; type: in vivo, Oryza sativa; conditions: Oryza sativa, PPI application, read-out: Percent inhibition ORYSA
Method: as §2, §3, §4, §5

barley (HORVX) = assay: Selectivity test, PPI, cool season crop; type: in vivo, Hordeunm vulgare; conditions: Hordeum vulgare, PPI application, read-out: Percent inhibition HORVX
Method: as §2, §3, §4, §5

[4] = pre-plant incorporated, lowest tested rate with 80% or greater inhibition, about 14 days

`C=C(C)CC(F)(F)S(=O)(=O)c1ncn(C(=O)N(CC)CC)n1` [Example 18] was tested, and the inhibition at 10 g/ha ([1]; Urochloa platyphylla, PPI application, 10 g/ha, read-out: Percent inhibition BRAPP) was 0%, the inhibition at 30 g/ha ([1]; Urochloa platyphylla, PPI application, 30 g/ha, read-out: Percent inhibition BRAPP) was 0% and the inhibition at 100 g/ha ([1]; Urochloa platyphylla, PPI application, 100 g/ha, read-out: Percent inhibition BRAPP) was 0%. For the same compound, the inhibition at 300 g/ha ([1]; Urochloa platyphylla, PPI application, 300 g/ha, read-out: Percent inhibition BRAPP) was 100%, the inhibition at 900 g/ha ([1]; Urochloa platyphylla, PPI application, 900 g/ha, read-out: Percent inhibition BRAPP) was 100% and the “PPI activity GR80, BRAPP” value [1, 4] was 100 g/ha. The inhibition at 10 g/ha ([2]; Galium aparine, weed, PPI application, 10 g/ha, read-out: Percent inhibition GALAP) was 70%, the inhibition at 30 g/ha ([2]; Galium aparine, weed, PPI application, 30 g/ha, read-out: Percent inhibition GALAP) was 60% and the inhibition at 100 g/ha ([2]; Galium aparine, weed, PPI application, 100 g/ha, read-out: Percent inhibition GALAP) was 70%. For the same compound, the inhibition at 300 g/ha ([2]; Galium aparine, weed, PPI application, 300 g/ha, read-out: Percent inhibition GALAP) was 100%, the inhibition at 900 g/ha ([2]; Galium aparine, weed, PPI application, 900 g/ha, read-out: Percent inhibition GALAP) was 100% and the “PPI activity GR80, GALAP” value [2, 4] was 100 g/ha. The “PPI activity GR80, POLCO” value (POLCO (wild buckwheat)) was 100 g/ha, the “PPI activity GR80, STEME” value (STEME (common chickweed)) was 100 g/ha and the inhibition at 10 g/ha (LOLMG (annual ryegrass); Lolium multiflorum, weed, PPI application, 10 g/ha, read-out: Percent inhibition LOLMG) was 20%. It also gave an inhibition at 30 g/ha (LOLMG (annual ryegrass); Lolium multiflorum, weed, PPI application, 30 g/ha, read-out: Percent inhibition LOLMG) of 60%, an inhibition at 100 g/ha (LOLMG (annual ryegrass); Lolium multiflorum, weed, PPI application, 100 g/ha, read-out: Percent inhibition LOLMG) of 50% and an inhibition at 300 g/ha (LOLMG (annual ryegrass); Lolium multiflorum, weed, PPI application, 300 g/ha, read-out: Percent inhibition LOLMG) of 100%. The inhibition at 900 g/ha (LOLMG (annual ryegrass); Lolium multiflorum, weed, PPI application, 900 g/ha, read-out: Percent inhibition LOLMG) was 100%, the “PPI activity GR80, LOLMG” value (LOLMG (annual ryegrass); [4]) was 100 g/ha and the inhibition at 10 g/ha ([3]; Agrostis stolonifera, weed, PPI application, 10 g/ha, read-out: Percent inhibition AGSST) was 100%. It also gave an inhibition at 30 g/ha ([3]; Agrostis stolonifera, weed, PPI application, 30 g/ha, read-out: Percent inhibition AGSST) of 60%, an inhibition at 100 g/ha ([3]; Agrostis stolonifera, weed, PPI application, 100 g/ha, read-out: Percent inhibition AGSST) of 100% and an inhibition at 300 g/ha ([3]; Agrostis stolonifera, weed, PPI application, 300 g/ha, read-out: Percent inhibition AGSST) of 99%. For the same compound, the inhibition at 900 g/ha ([3]; Agrostis stolonifera, weed, PPI application, 900 g/ha, read-out: Percent inhibition AGSST) was 100%, the “PPI activity GR80, AGSST” value [3, 4] was 10 g/ha and the “Post-emergence activity GR80, SETVI” value (SETVI (green foxtail)) was “[empty]”. For the same compound, the inhibition at 10 g/ha (corn (ZEAMX); 10 g/ha) was 0%, the inhibition at 30 g/ha (corn (ZEAMX); 30 g/ha) was 0% and the inhibition at 100 g/ha (corn (ZEAMX); 100 g/ha) was 10%. It also gave an inhibition at 300 g/ha (corn (ZEAMX); 300 g/ha) of 15%, an inhibition at 900 g/ha (corn (ZEAMX); 900 g/ha) of 20% and an inhibition at 10 g/ha (rice (ORYSA); 10 g/ha) of 0%. It also gave an inhibition at 30 g/ha (rice (ORYSA); 30 g/ha) of 0%, an inhibition at 100 g/ha (rice (ORYSA); 100 g/ha) of 0% and an inhibition at 300 g/ha (rice (ORYSA); 300 g/ha) of 15%. For the same compound, the inhibition at 900 g/ha (rice (ORYSA); 900 g/ha) was 10%, the inhibition at 10 g/ha (barley (HORVX); 10 g/ha) was 0% and the inhibition at 30 g/ha (barley (HORVX); 30 g/ha) was 0%. It also gave an inhibition at 100 g/ha (barley (HORVX); 100 g/ha) of 0%, an inhibition at 300 g/ha (barley (HORVX); 300 g/ha) of 10% and an inhibition at 900 g/ha (barley (HORVX); 900 g/ha) of 60%.

— patent US6461997B1, “Triazole sulfones having herbicidal activity” (Monsanto Technology LLC, priority 1999, dated 2002)
